The source of these data is patent US20090203577A1 (EXELIXIS, INC., priority 2005, published 2009).

The test has as its target T1, human farnesoid X receptor (Homo sapiens, UniProt Q96RI1).
T1 construct: CMX-farnesoid X receptor (full length human farnesoid X receptor); expressed in transfected cells; host or cells: CV-1 African Green Monkey Kidney cells
T1 sequence (Q96RI1 1-472 isoform Q96RI1-2): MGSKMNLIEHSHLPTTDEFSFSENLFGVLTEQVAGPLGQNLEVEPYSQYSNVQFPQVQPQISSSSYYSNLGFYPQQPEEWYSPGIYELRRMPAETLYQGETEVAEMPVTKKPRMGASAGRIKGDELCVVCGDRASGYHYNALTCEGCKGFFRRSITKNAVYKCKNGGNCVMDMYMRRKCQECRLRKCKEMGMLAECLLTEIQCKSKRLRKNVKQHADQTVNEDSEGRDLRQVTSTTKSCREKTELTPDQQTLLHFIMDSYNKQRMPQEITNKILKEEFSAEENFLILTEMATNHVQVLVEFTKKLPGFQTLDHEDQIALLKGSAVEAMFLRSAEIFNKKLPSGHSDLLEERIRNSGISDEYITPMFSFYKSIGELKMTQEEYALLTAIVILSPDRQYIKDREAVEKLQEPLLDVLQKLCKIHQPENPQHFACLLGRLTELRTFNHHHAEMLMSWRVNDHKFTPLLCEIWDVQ
T1 sequence (P19793 1-462 partner): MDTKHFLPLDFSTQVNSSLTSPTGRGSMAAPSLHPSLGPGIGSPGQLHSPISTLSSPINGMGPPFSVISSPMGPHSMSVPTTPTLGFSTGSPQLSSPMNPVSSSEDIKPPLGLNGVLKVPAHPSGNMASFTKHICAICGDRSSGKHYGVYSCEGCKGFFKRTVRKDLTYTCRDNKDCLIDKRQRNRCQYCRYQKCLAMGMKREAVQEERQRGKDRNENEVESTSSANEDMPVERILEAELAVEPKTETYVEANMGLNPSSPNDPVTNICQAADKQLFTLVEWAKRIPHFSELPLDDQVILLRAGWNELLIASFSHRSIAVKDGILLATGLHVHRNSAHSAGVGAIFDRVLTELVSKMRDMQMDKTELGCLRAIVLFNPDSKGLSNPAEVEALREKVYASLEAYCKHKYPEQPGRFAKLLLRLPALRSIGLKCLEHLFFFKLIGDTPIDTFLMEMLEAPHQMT
Put plainly: FXR in vitro assays (farnesoid X receptor/ECREx7 co-transfection assay, TR-FRET assay), Table I. Format: cell-based. The conditions noted are these: for Emax: read-out: % Efficacy. A digest of the protocol: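 CV-1 monkey kidney cells transfected for an FXR/ECREx7 luciferase co-transfection reporter; luciferase read 18-20 h later in lysates. 8-point dose-response at ½-log spacing, 4 wells per point; EC50/IC50 from four-parameter Hill fit, averaged over at least 3 independent experiments.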

The mark [1] stands for this setting: agonist activity, one or more of the in vitro assays, read-out: EC50.

Read-outs that look alike come from different tables or passages of the source.

As usually defined, the EC50 is the concentration that produces a half-maximal response. `CNC(=O)Oc1ccc2c3c([nH]c2c1)C(C(=O)OC(C)C)=CN(C(=O)c1ccc(F)c(F)c1)CC3(C)C` [Example 102, 1-methylethyl 3-[(3,4-difluorophenyl)carbonyl]-1,1-dimethyl-8-{[(methylamino)carbonyl]oxy}-1,2,3,6-tetrahydroazepino[4,5-b]indole-5-carboxylate]: the EC50 lay in the range of 10 to 100 nM and the Emax was below 40%.
For `CC(COC(=O)c1ccc(F)c(F)c1)OC(=O)C1=CN(C(=O)c2ccc(F)c(F)c2)CC(C)(C)c2c1[nH]c1ccccc21` (stereo not shown) [Example 194, 2-{[(3,4-difluorophenyl)carbonyl]oxy}-1-methylethyl 3-[(3,4-difluorophenyl)carbonyl]-1,1-dimethyl-1,2,3,6-tetrahydroazepino[4,5-b]indole-5-carboxylate], the Emax was above 100%. Also, the EC50 under setting [1] was 10 to 100 nM.
The like results for `CC(C)OC(=O)C1=CN(C(=O)c2cccc(C#N)c2)CC(C)(C)c2c1[nH]c1ccccc21` [Example 142, 1-methylethyl 3-[(3-cyanophenyl)carbonyl]-1,1-dimethyl-1,2,3,6-tetrahydroazepino[4,5-b]indole-5-carboxylate] were, in that order, above 100% and 10 to 100 nM.
As to `CC(C)OC(=O)C1=CN(C(=O)NCCN2CCOCC2)CC(C)(C)c2c1[nH]c1ccccc21` [Example 22, 1-methylethyl 1,1-dimethyl-3-{[(2-morpholin-4-ylethyl)amino]carbonyl}-1,2,3,6-tetrahydroazepino[4,5-b]indole-5-carboxylate], the EC50 under setting [1] lay in the range of 1000 to 10000 nM.
As for `CC(C)OC(=O)C1=CN(C(=O)c2cccc(CN3CCN(S(=O)(=O)c4ccc(F)cc4)CC3)c2)CC(C)(C)c2c1[nH]c1ccccc21` [Example 168, 1-methylethyl 3-{[3-({4-[(4-fluorophenyl)sulfonyl]piper-azin-1-yl}methyl)phenyl]carbonyl}-1,1-dimethyl-1,2,3,6-tetrahydroazepino[4,5-b]indole-5-carboxylate], the Emax is above 100%. Besides, under setting [1], the EC50 lay in the range of 100 to 1000 nM.
On the same counts, the results for `CC(C)OC(=O)C1=CN(C(=O)c2cc(F)c(F)c(OCCN3CCOCC3)c2)CC(C)(C)c2c1[nH]c1ccccc21` [Example 179, 1-methylethyl 3-({3,4-difluoro-5-[(2-morpholin-4-ylethyl)oxy]phenyl}carbonyl)-1,1-dimethyl-1,2,3,6-tetrahydroazepino[4,5-b]indole-5-carboxylate] are above 100% and 10 to 100 nM.
The like results for `CC(C)OC(=O)C1=CN(C(=O)c2cc(F)c(F)c(OCCN3CCCCC3)c2)CC(C)(C)c2c1[nH]c1ccccc21` [Example 180, 1-methylethyl 3-({3,4-difluoro-5-[(2-piperidin-1-ylethyl)oxy]phenyl}carbonyl)-1,1-dimethyl-1,2,3,6-tetrahydroazepino[4,5-b]indole-5-carboxylate] were, in that order, above 100% and 10 to 100 nM.
On to `CCN(CC)CCCNC(=O)Oc1ccc2c3c([nH]c2c1)C(C(=O)OC(C)C)=CN(C(=O)c1ccc(F)c(F)c1)CC3(C)C` [Example 112, 1-methylethyl 8-[({[3-(diethylamino)propyl]amino}carbonyl)oxy]-3-[(3,4-difluorophenyl)carbonyl]-1,1-dimethyl-1,2,3,6-tetrahydroazepino[4,5-b]indole-5-carboxylate], for which the EC50 lay within 1000 to 10000 nM and the Emax is above 100%.
For `CC(C)OC(=O)C1=CN(C(=O)c2ccc(-n3cccn3)cc2)CC(C)(C)c2c1[nH]c1ccccc21` [Example 141, 1-methylethyl 1,1-dimethyl-3-{[4-(1H-pyrazol-1-yl)phenyl]carbonyl}-1,2,3,6-tetrahydroazepino[4,5-b]indole-5-carboxylate], the Emax is above 100%. Further, the EC50 under setting [1] was 10 to 100 nM.
For `CC1(C)CN(C(=O)c2ccc(F)c(F)c2)C=C(C(=O)NOCC(O)CO)c2[nH]c3ccccc3c21` (stereo not shown) [Example 161, 3-[(3,4-difluorophenyl)carbonyl]-N-[(2,3-dihydroxypropyl)oxy]-1,1-dimethyl-1,2,3,6-tetrahydroazepino[4,5-b]indole-5-carboxamide], the EC50 under setting [1] was above 10000 nM.
Turning to `CC1(C)CN(C(=O)c2ccc(F)c(F)c2)C=C(C(=O)NCCC(=O)O)c2[nH]c3ccccc3c21` [Example 101, N-({3-[(3,4-difluorophenyl)carbonyl]-1,1-dimethyl-1,2,3,6-tetrahydroazepino[4,5-b]indol-5-yl}carbonyl)-beta-alanine], the EC50 under setting [1] was above 10000 nM.
The same measure, in the same setting: as for `CC(C)OC(=O)C1=CN(C(=O)N2CCCC(COCCCN(C)C)C2)CC(C)(C)c2c1[nH]c1ccccc21` (stereo not shown) [Example 55, 1-methylethyl 3-{[3-({[3-(dimethylamino)propyl]oxy}methyl)piperidin-1-yl]carbonyl}-1,1-dimethyl-1,2,3,6-tetrahydroazepino[4,5-b]indole-5-carboxylate], the figure is 1000 to 10000 nM.
Take `CC(C)OC(=O)C1=CN(C(=O)c2c(F)ccc(Cl)c2F)CC(C)(C)c2c1[nH]c1ccccc21` [Example 145, 1-methylethyl 3-[(3-chloro-2,6-difluorophenyl)carbonyl]-1,1-dimethyl-1,2,3,6-tetrahydroazepino[4,5-b]indole-5-carboxylate]: the Emax is above 100%. Also, the concentration for a half-maximal effect (EC50) under setting [1] was 100 to 1000 nM.
Take `CCN(CC)CCN(CC)C(=O)N1C=C(C(=O)OC(C)C)c2[nH]c3ccccc3c2C(C)(C)C1` [Example 27, 1-methylethyl 3-({[2-(diethylamino)ethyl](ethyl)amino}carbonyl)-1,1-dimethyl-1,2,3,6-tetrahydro azepino [4,5-b]indole-5-carboxylate]: under setting [1], the EC50 is 1000 to 10000 nM.
As for `CC(C)OC(=O)C1=CN(C(=O)c2cccc(CN3CCCCCC3)c2)CC(C)(C)c2c1[nH]c1ccccc21` [Example 152, 1-methylethyl 3-{[3-(azepan-1-ylmethyl)phenyl]carbonyl}-1,1-dimethyl-1,2,3,6-tetrahydroazepino[4,5-b]indole-5-carboxylate], the Emax is above 100%. Under setting [1], the EC50 was in the range of 10 to 100 nM.
On the same counts, the results for `CC(C)OC(=O)C1=CN(C(=O)c2cccc(CN3CCN(C(=O)c4ccccc4)CC3)c2)CC(C)(C)c2c1[nH]c1ccccc21` [Example 175, 1-methylethyl 1,1-dimethyl-3-[(3-{[4-(phenylcarbonyl)piperazin-1-yl]methyl}phenyl)carbonyl]-1,2,3,6-tetrahydroazepino[4,5-b]indole-5-carboxylate] are above 100% and 100 to 1000 nM.
Take `CC(C)OC(=O)C1=CN(C(=O)c2ccc(F)c(F)c2)CC(C)(C)c2c1[nH]c1cc(OC(=O)NCCN3CCCC3)ccc21` [Example 126, 1-methylethyl 3-[(3,4-difluorophenyl)carbonyl]-1,1-dimethyl-8-({[(2-pyrrolidin-1-ylethyl)amino]carbonyl}oxy)-1,2,3,6-tetrahydroazepino[4,5-b]indole-5-carboxylate]: the EC50 fell in the range of 10 to 100 nM and the Emax was above 100%.
As for `CC(C)OC(=O)C1=CN(C(=O)c2c(F)ccc(F)c2Cl)CC(C)(C)c2c1[nH]c1ccccc21` [Example 61, 1-methylethyl 3-[(2-chloro-3,6-difluorophenyl)carbonyl]-1,1-dimethyl-1,2,3,6-tetrahydroazepino[4,5-b]indole-5-carboxylate], the Emax is above 100%. Under setting [1], the 50% effective concentration (EC50) was in the range of 10 to 100 nM.
Turning to `CC(C)OC(=O)C1=CN(C(=O)c2ccc(F)c(Cl)c2)CC(C)(C)c2c1[nH]c1ccccc21` [Example 147, 1-methylethyl 3-[(3-chloro-4-fluorophenyl)carbonyl]-1,1-dimethyl-1,2,3,6-tetrahydroazepino[4,5-b]indole-5-carboxylate], the Emax is above 100%. Also, the EC50 under setting [1] was 1 to 10 nM.
On the same counts, the results for `CC(C)OC(=O)C1=CN(C(=O)c2cccc(CN3CCN(C(=O)C(C)C)CC3)c2)CC(C)(C)c2c1[nH]c1ccccc21` [Example 174, 1-methylethyl 1,1-dimethyl-3-[(3-{[4-(2-methylpropanoyl)piperazin-1-yl]methyl}phenyl)carbonyl]-1,2,3,6-tetrahydroazepino[4,5-b]indole-5-carboxylate] are above 100% and 100 to 1000 nM.
In the case of `CC(C)OC(=O)C1=CN(C(=O)c2cccc(C(F)(F)F)c2F)CC(C)(C)c2c1[nH]c1ccccc21` [Example 133, 1-methylethyl 3-{[2-fluoro-3-(trifluoromethyl)phenyl]car-bonyl}-1,1-dimethyl-1,2,3,6-tetrahydroazepino[4,5-b]indole-5-carboxylate], the Emax was above 100%. The EC50 under setting [1] lay within 10 to 100 nM.
